Test results from US10758534B2 (Vertex Pharmaceuticals Incorporated, priority 2014, dated 2020).

Target: T1, F508del (Homo sapiens, UniProt P13569, DEL508-508)
T1 construct: expressed in transfected cells
Assay: Protocol 1: membrane potential optical assay (FLIPR III, voltage sensing dye), identification of potentiator compounds
Assay type: cell-based
Conditions: Table 3, compounds of Table 1
In short: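 Gating potentiation is read as a membrane-potential fluorescence change (FLIPR III, voltage-sensing dye) after one forskolin addition under a Cl− gradient, with gluconate replacing chloride, pH 7.4. Cells are F508del-expressing NIH3T3 mouse fibroblasts held 24 h at 27 °C and exposed to compound before dye loading.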

T1 sequence (P13569 with tags, fused parts or gaps DEL508-508): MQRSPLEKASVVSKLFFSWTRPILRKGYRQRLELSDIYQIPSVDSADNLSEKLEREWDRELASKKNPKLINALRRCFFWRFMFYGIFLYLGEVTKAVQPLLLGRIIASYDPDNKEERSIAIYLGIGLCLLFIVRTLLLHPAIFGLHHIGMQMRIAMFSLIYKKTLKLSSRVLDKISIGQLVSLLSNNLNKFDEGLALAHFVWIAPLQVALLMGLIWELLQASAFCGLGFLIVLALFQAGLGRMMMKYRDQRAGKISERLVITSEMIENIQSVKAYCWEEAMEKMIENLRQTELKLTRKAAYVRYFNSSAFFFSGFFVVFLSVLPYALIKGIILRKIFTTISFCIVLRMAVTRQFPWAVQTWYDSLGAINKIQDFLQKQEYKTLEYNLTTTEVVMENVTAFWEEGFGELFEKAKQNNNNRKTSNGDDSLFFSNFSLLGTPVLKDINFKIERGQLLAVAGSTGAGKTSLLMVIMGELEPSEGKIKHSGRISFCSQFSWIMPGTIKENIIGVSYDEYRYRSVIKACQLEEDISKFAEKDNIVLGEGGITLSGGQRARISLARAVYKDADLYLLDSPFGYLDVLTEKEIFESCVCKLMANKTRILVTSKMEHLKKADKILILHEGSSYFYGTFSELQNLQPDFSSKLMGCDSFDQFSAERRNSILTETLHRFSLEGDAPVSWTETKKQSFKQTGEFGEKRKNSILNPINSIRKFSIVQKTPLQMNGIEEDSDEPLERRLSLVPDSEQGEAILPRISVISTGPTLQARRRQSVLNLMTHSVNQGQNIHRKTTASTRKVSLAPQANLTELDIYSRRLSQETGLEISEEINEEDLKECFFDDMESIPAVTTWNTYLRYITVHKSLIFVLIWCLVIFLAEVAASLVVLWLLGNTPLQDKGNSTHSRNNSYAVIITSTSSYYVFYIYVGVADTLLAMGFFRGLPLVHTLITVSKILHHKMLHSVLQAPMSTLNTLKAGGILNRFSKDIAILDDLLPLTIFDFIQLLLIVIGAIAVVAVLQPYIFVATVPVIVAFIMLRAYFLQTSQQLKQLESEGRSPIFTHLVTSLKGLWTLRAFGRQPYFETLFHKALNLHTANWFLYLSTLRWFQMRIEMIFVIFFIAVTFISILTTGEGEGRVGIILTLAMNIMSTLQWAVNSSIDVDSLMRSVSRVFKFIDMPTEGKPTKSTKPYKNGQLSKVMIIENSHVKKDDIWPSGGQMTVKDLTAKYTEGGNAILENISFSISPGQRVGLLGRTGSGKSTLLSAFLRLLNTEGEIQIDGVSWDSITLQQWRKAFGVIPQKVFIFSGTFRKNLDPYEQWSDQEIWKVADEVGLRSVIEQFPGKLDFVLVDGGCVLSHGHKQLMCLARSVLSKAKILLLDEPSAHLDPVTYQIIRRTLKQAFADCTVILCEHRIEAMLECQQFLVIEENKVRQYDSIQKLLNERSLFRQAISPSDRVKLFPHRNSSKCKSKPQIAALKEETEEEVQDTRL

Row | EC30 | SMILES
1 | +++ (“+++” means <3 uM) | COc1ccc(C)cc1-c1ccc(C(=O)NS(=O)(=O)c2cccc(N)n2)c(Oc2c(C)cc(C)cc2C)n1 [Compound 1320, N-[(6-amino-2-pyridyl)sulfonyl]-6-(2-methoxy-5-methyl-phenyl)-2-(2,4,6-trimethylphenoxy)pyridine-3-carboxamide]
2 | ++ (“++” means between 3 uM and 10 uM) | CCOc1cccc2c1CN(Cc1ccc(OC(C)C)nc1)C2(C)C(=O)NS(=O)(=O)c1cccc(N)n1 (stereo not drawn) [Compound 1662, N-[(6-amino-2-pyridyl)sulfonyl]-4-ethoxy-2-[(6-isopropoxy-3-pyridyl)methyl]-1-methyl-isoindoline-1-carboxamide]
3 | +++ (“+++” means <3 uM) | C[C@@H]1CC[C@H](C)N1c1nc(-c2ccc(OC(F)F)nc2)ccc1C(=O)NS(=O)(=O)c1cccc(N)n1 [Compound 1679, N-[(6-amino-2-pyridyl)sulfonyl]-6-[6-(difluoromethoxy)-3-pyridyl]-2-[(2S,5R)-2,5-dimethylpyrrolidin-1-yl]pyridine-3-carboxamide]
4 | ++ (“++” means between 3 uM and 10 uM) | CC(CO)Oc1ccc(-c2ccc(C(=O)NS(=O)(=O)c3cccc(N)n3)c(N3[C@H](C)CC[C@@H]3C)n2)cn1 (stereo partly drawn) [Compound 998, N-[(6-amino-2-pyridyl)sulfonyl]-2-[(2S,5R)-2,5-dimethylpyrrolidin-1-yl]-6-[6-(2-hydroxy-1-methyl-ethoxy)-3-pyridyl]pyridine-3-carboxamide]
5 | ++ (“++” means between 3 uM and 10 uM) | C[C@@H]1CN(c2nc(C3CCOC3)ccc2C(=O)NS(=O)(=O)c2cccc(N)n2)C(C)(C)C1 (stereo partly drawn) [Compound 1534, N-[(6-amino-2-pyridyl)sulfonyl]-6-tetrahydrofuran-3-yl-2-[(4S)-2,2,4-trimethylpyrrolidin-1-yl]pyridine-3-carboxamide]
6 | +++ (“+++” means <3 uM) | COc1cc(C(C)(C)C)nc(Oc2c(C)cc(C)cc2C)c1C(=O)NS(=O)(=O)c1cccc(N)c1 [Compound 959, N-(3-aminophenyl)sulfonyl-6-tert-butyl-4-methoxy-2-(2,4,6-trimethylphenoxy)pyridine-3-carboxamide]
7 | +++ (“+++” means <3 uM) | COc1cccc2c1CN(Cc1c(C)cc(C)cc1C)C2(C)C(=O)NS(=O)(=O)c1cccc(N)n1 (stereo not drawn) [Compound 1161, N-[(6-amino-2-pyridyl)sulfonyl]-4-methoxy-1-methyl-2-[(2,4,6-trimethylphenyl)methyl]isoindoline-1-carboxamide]
8 | + (“+” means greater than 10 uM) | CCOc1cccc2c1CN(Cc1ccc(Cl)nc1)C2(C)C(=O)NS(=O)(=O)c1cccc(N)n1 (stereo not drawn) [Compound 1565, N-[(6-amino-2-pyridyl)sulfonyl]-2-[(6-chloro-3-pyridyl)methyl]-4-ethoxy-1-methyl-isoindoline-1-carboxamide]
9 | +++ (“+++” means <3 uM) | C[C@@H]1CN(c2nc(C3CCOCC3)ccc2C(=O)NS(=O)(=O)c2cccnc2N)C(C)(C)C1 [Compound 1850, N-[(2-amino-3-pyridyl)sulfonyl]-6-tetrahydropyran-4-yl-2-[(4S)-2,2,4-trimethylpyrrolidin-1-yl]pyridine-3-carboxamide]
10 | +++ (“+++” means <3 uM) | CC1CN(c2ncccc2C(=O)NS(=O)(=O)c2cccc(N3CCCCCC3)n2)C(C)(C)C1 (stereo not drawn) [Compound 1932, N—[[6-(azepan-1-yl)-2-pyridyl]sulfonyl]-2-(2,2,4-trimethylpyrrolidin-1-yl)pyridine-3-carboxamide]
11 | +++ (“+++” means <3 uM) | CC1CN(c2ncccc2C(=O)NS(=O)(=O)c2cccc(OCC3CCC=CO3)n2)C(C)(C)C1 (stereo not drawn) [Compound 1874, N—[[6-(3,4-dihydro-2H-pyran-2-ylmethoxy)-2-pyridyl]sulfonyl]-2-(2,2,4-trimethylpyrrolidin-1-yl)pyridine-3-carboxamide]
12 | +++ (“+++” means <3 uM) | CC(CO)COc1cc(F)cc(-c2ccc(C(=O)NS(=O)(=O)c3cccc(N)n3)c(N3C[C@@H](C)CC3(C)C)n2)c1 (stereo partly drawn) [Compound 1567, N-[(6-amino-2-pyridyl)sulfonyl]-6-[3-fluoro-5-(3-hydroxy-2-methyl-propoxy)phenyl]-2-[(4S)-2,2,4-trimethylpyrrolidin-1-yl]pyridine-3-carboxamide]

Row | SMILES | EC30
13 | CC(C)COc1cc(F)cc(-c2ccc(C(=O)NS(=O)(=O)c3ccn[nH]3)c(N3CCC4(CCC4)CC3)n2)c1 [Compound 944, 2-(7-azaspiro[3.5]nonan-7-yl)-6-(3-fluoro-5-isobutoxy-phenyl)-N-(1H-pyrazol-5-ylsulfonyl)pyridine-3-carboxamide] | +++ (“+++” means <3 uM)
14 | CC(C)COc1cc(F)cc(-c2ccc(C(=O)NS(=O)(=O)N3CCC[C@H](N)C3)c(N3C[C@@H](C)CC3(C)C)n2)c1 [Compound 1435, N—[[(3S)-3-amino-1-piperidyl]sulfonyl]-6-(3-fluoro-5-isobutoxy-phenyl)-2-[(4S)-2,2,4-trimethylpyrrolidin-1-yl]pyridine-3-carboxamide] | +++ (“+++” means <3 uM)
15 | CC(C)COc1cc(F)cc(-c2ccc(C(=O)NS(=O)(=O)c3cccc(N)n3)c(OCCC3CCCC3)n2)c1 [Compound 1440, N-[(6-amino-2-pyridyl)sulfonyl]-2-(2-cyclopentylethoxy)-6-(3-fluoro-5-isobutoxy-phenyl)pyridine-3-carboxamide] | +++ (“+++” means <3 uM)
16 | CC(C)COc1cc(F)cc(-c2ccc(C(=O)NS(=O)(=O)c3cccc(N)n3)c(OC3CCC(F)(F)CC3)n2)c1 [Compound 961, N-[(6-amino-2-pyridyl)sulfonyl]-2-(4,4-difluorocyclohexoxy)-6-(3-fluoro-5-isobutoxy-phenyl)pyridine-3-carboxamide] | +++ (“+++” means <3 uM)
17 | CC(C)COc1cc(F)cc(-c2ccc(C(=O)NS(=O)(=O)c3cccc(N)n3)c(OCC3CC3(C)C)n2)c1 (stereo not drawn) [Compound 894, N-[(6-amino-2-pyridyl)sulfonyl]-2-[(2,2-dimethylcyclopropyl)methoxy]-6-(3-fluoro-5-isobutoxy-phenyl)pyridine-3-carboxamide] | +++ (“+++” means <3 uM)
18 | CC(C)COc1cc(F)cc(-c2ccc(C(=O)NS(=O)(=O)N3CCCC(N)C3)c(N3CC(C)CC3(C)C)n2)c1 (stereo not drawn) [Compound 1447, N-[(3-amino-1-piperidyl)sulfonyl]-6-(3-fluoro-5-isobutoxy-phenyl)-2-(2,2,4-trimethylpyrrolidin-1-yl)pyridine-3-carboxamide] | +++ (“+++” means <3 uM)
19 | CC1CN(c2ncccc2C(=O)NS(=O)(=O)c2cccc(OC3CCCC3)n2)C(C)(C)C1 (stereo not drawn) [Compound 1834, N—[[6-(cyclopentoxy)-2-pyridyl]sulfonyl]-2-(2,2,4-trimethylpyrrolidin-1-yl)pyridine-3-carboxamide] | +++ (“+++” means <3 uM)
20 | CC(C)COc1cc(F)cc(-c2ccc(C(=O)NS(=O)(=O)c3cccc(N)n3)c(OC(C)(C)Cc3ccccc3)n2)c1 [Compound 1365, N-[(6-amino-2-pyridyl)sulfonyl]-2-(1,1-dimethyl-2-phenyl-ethoxy)-6-(3-fluoro-5-isobutoxy-phenyl)pyridine-3-carboxamide] | +++ (“+++” means <3 uM)
21 | CC(C)COc1cc(F)cc(-c2ccc(C(=O)NS(=O)(=O)c3cccc(N)n3)c(OCCCCc3ccccn3)n2)c1 [Compound 1688, N-[(6-amino-2-pyridyl)sulfonyl]-6-(3-fluoro-5-isobutoxy-phenyl)-2-[4-(2-pyridyl)butoxy]pyridine-3-carboxamide] | +++ (“+++” means <3 uM)
